According to PMC11412900 (Molecular Psychiatry, 2024):
Read-outs that look alike come from different tables or passages of the source.

What was measured:
h5-HT2AR = biological target: T1, h5-HT2AR (Homo sapiens, UniProt P28223); format: binding; conditions: 1 nM [3H]ketanserin, N ≥ 3; read-out: 5-HT2AR Ki ± SD
T1 construct: purchased Perkin Elmer, Inc. (Waltham, MA, USA)
Protocol: (§1) Binding assays were performed as described previously. Briefly, membrane preparations expressing h5-HT1AR, h5-HT2AR or hSERT (see Supplementary Material) were incubated with radiolabeled selective ligands 0.4 nM [^3H]8-OH-DPAT, 1 nM [^3H]ketanserin or 3 nM [^3H]imipramine, respectively. The drugs were diluted in the corresponding binding buffer and tested at increasing concentrations in duplicate. Binding reactions were performed in tubes containing the drug dilutions; 25 μl of the corresponding radioligand; and the membranes (10 μg and 5 μg/500 μL for 5-HT1AR and 5-HT2AR, respectively, and 15 μg/100 μL for hSERT), all diluted in binding buffer. […] Incubation was performed for 1 h at 27 °C for 5-HT1A/2AR and 22 °C for hSERT, according to the manufacturer’s protocol (Perkin Elmer, Inc., Waltham, MA, USA) and previous studies - saturation and kinetic experiments, respectively. The binding reactions were stopped by rapid filtration through GF/B glass microfiber filters pre-soaked with 0.5% polyethyleneimine and washing with ice-cold wash buffer. The filters were placed into vials and scintillation cocktail was added. The trapped radioactivity was quantified. Specific binding was defined as the difference between total binding (binding buffer alone) and non-specific binding. Experiments were conducted per duplicate for at least three independent experiments.

SERT [1] = biological target: T2, SERT (Homo sapiens, UniProt P31645); test: Radioligand binding, [3H]imipramine displacement
T2 construct: YFP (yellow-fluorescent protein); expressed in transfected cells
Protocol: as §1
(§2) The generation and maintenance of HEK293 cells stably expressing the yellow-fluorescent protein (YFP)-tagged version of the human isoform of SERT (hSERT) (Perkin Elmer, Waltham, MA, USA) was carried out as described previously. For uptake inhibition and batch release assays, cells were seeded onto previously poly-D-lysine (PDL)-coated 96-well plates at a density of 0.036 million cells per well [5]. For superfusion release assays, cells were seeded onto a previously coated with PDL 6 channel µ-slide at a density of 0.08 million cells per channel. Prior to patching, cells were grown in DMEM containing 10% FBS, Zeocin (150 µg/mL) and Blasticidin (6 µg/mL) for positive selection of transporter-expressing clones. The cells were seeded at a low density on PDL-coated 35 mm plates 24-48 hr prior to patching. For membrane preparation, HEK293 cells expressing hSERT transporters were harvested from 80–90% confluent dishes as described elsewhere. Protein concentration was determined using the Bio-RadProtein Reagent (Bio Rad Laboratories, Hercules, CA, USA). Membrane preparations were stored at −80°C until use. Generation and maintenance of CHO-K1 cells expressing the human isoform of 5-HT2AR (h5-HT2AR) was carried out as described in the manufacturer’s protocol (Perkin Elmer, Waltham, MA, USA). Routine DAPI-Staining assays tested negative in mycoplasma contamination.

SERT [2] = biological target: T2, SERT; test: [3H]5-HT uptake inhibition in HEK293 cells expressing hSERT; format: cell-based
Protocol: See the Supplementary Material for cell culture procedures. The medium was removed from each well and replaced with 200 μL/well of Krebs-HEPES-Buffer (KHB). The cells were pre-incubated for 5 min with different concentrations of drug in KHB at 50 μL/well. […] The incubation solution was aspirated and the cells were washed with ice-cold KHB and lysed with 1% sodium dodecyl sulfate (SDS). The lysate was collected into vials and scintillation liquid was added. The radioactivity was quantified using a beta-scintillation counter (Perkin Elmer, Waltham, MA, USA). Non-specific uptake was determined in the presence of 30 μM paroxetine. Data were expressed as percentage of control uptake (absence of tryptamine).
as §2

[3] = test system: horizontal locomotor activity in mice; test: Horizontal locomotor activity (HLA); format: in vivo; conditions: i.p., 30 min; for HLA (hypolocomotion) Emax (95% CI): total traveled distance
Protocol: The HLA test was carried out according to a previous study. The same animals (N = 8–10 per group) used for the assessment of HTR were recorded for 30 min in an observation arena, under low-light conditions with white noise. Video recordings were processed using a tracking software (Smart 3.0 Panlab, Barcelona, Spain) to measure the total traveled distance.
Data were expressed as means±standard deviation (SD). Competition, release and functional assays, and substrate-induced current curves were plotted and fitted by non-linear regression to obtain the IC50, EC50, and Emax values. For behavioral studies, data were fitted by non-linear regression and pED50 and Emax values (with the corresponding 95% CI) were estimated by means of a software (GraphPad Prism 10) that further extrapolates the data. The Cheng-Prusoff equation was used to calculate Ki (affinity): Ki = […]/(1 + [radioligand-concentration/Kd]). HTR curves were fitted using a Gaussian equation as described. Data from batch release assays were statistically analyzed with a mixed-effects model, employing Šidák’s correction for multiple comparisons. Total release at each concentration and the behavioral experiments with the corresponding antagonists were statistically analyzed using one-way ANOVA, followed by Tukey’s post-hoc test. Molecular volume (van der Waals) was calculated using a grid approximation (spacing 0.75 Å). logP was calculated using Molinspiration Cheminformatics software. For in vivo studies, one-way ANOVA with Dunnet’s post-hoc test was used to compare all conditions to saline in dose-response experiments when data were normally distributed. Otherwise, a non-parametric test (Kruskall-Wallis with Dunn’s post-hoc test) was used. Alpha was set at 0.05. Outliers were excluded following ROUT’s method (Q = 0.1%). All statistical analyses and Pearson correlations were conducted using GraphPad Prism 10 software (GraphPad software, San Diego, CA, USA).

SERT [4] = biological target: T2, SERT; test: Batch release of preloaded [3H]5-HT from HEK293 cells expressing SERT; format: cell-based; conditions: for 5-HT releasing activity: with or without monensin, pCA as positive control; for 5-HT release at SERT: with or without monensin 10 µM
Protocol: Batch release is a functional radiometric assay to assess transporter-mediated efflux. […] Subsequently, cells were washed three times with KHB and equilibrated for 10 min in KHB or KHB+monensin (10 µM). […] 10 µM pCA and 0.05 µM paroxetine were used as positive and negative controls, respectively. Liquid scintillation cocktail was added both to the wells containing cells (200 µL) and to the transferred supernatant (100 µL). Total radioactivity determined from/in the remaining lysate of the cells plus the transferred supernatant was set as 100%, and the radioactivity determined in each fraction was expressed as a percentage thereof. Assays were performed per duplicate for five independent experiments.

[5] = 3 nM [3H]imipramine, N ≥ 3, read-out: SERT Ki ± SD
[6] = read-out: 5-HT uptake inhibition IC50 ± SD, HEK293 hSERT, N ≥ 3

T2 sequence (P31645 whole entry): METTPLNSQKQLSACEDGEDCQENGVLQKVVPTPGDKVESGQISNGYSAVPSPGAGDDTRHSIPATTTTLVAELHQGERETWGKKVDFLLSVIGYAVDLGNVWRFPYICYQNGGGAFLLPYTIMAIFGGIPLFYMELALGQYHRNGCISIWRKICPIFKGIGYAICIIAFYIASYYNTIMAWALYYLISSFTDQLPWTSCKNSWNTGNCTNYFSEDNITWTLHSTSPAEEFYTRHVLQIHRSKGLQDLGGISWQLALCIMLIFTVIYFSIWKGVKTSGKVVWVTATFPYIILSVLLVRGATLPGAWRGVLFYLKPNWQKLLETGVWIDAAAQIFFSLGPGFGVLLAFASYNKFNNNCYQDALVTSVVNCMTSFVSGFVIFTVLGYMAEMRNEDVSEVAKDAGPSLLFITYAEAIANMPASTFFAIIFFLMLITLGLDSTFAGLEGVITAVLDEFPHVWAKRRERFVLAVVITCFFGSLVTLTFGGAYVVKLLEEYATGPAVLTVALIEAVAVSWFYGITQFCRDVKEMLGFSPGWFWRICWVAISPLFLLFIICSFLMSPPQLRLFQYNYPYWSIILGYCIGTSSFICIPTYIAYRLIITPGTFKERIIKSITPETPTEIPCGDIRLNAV
T1 sequence (P28223 whole entry): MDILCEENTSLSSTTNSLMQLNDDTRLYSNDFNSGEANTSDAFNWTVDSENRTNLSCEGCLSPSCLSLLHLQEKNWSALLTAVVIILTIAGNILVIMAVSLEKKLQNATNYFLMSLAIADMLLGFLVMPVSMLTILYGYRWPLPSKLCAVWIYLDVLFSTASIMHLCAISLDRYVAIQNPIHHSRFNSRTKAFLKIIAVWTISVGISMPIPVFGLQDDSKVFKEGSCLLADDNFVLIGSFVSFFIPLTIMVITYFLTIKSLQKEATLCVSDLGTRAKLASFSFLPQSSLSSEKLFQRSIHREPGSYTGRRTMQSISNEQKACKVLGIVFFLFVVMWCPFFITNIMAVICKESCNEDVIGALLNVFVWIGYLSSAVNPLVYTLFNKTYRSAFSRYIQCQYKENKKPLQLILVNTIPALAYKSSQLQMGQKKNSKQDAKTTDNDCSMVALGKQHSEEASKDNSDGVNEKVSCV

`C=CCN(CC=C)CCc1c[nH]c2ccc(OC)cc12` [5-MeO-DALT] gave a Ki (h5-HT2AR) of 0.0717 ± 0.0148 µM, a Ki (SERT [1]; [5]) of 1.19 ± 0.096 µM and an IC50 (SERT [2]; [6]) of 22.3 µM. The “HLA (hypolocomotion) ED50” value [3] was 6.22 mg/kg, the “HLA (hypolocomotion) Emax (95% CI)” value [3] was 73.11 (57.45–88.78) % reduction and the “5-HT releasing activity” value (SERT [4]) was “slight to none 5-HT releasing activity”.

`CCN(CC)CCc1c[nH]c2ccc(OC)cc12` [5-MeO-DET] showed a Ki (h5-HT2AR) of 0.128 ± 0.004 µM, a Ki (SERT [1]; [5]) of 10.4 µM and an IC50 (SERT [2]; [6]) of 60 µM. The “HLA (hypolocomotion) ED50” value [3] was 4.78 mg/kg, the “HLA (hypolocomotion) Emax (95% CI)” value [3] was 63.56 (37.58–89.53) % reduction and the “5-HT releasing activity” value (SERT [4]) was “capable of evoking 5-HT release”.

In the case of `COc1ccc2[nH]cc(CCN(C(C)C)C(C)C)c2c1` [5-MeO-DIPT, 5-methoxy-N,N-diisopropyltryptamine], the Ki (SERT [1]) is reported as 1.62 ± 0.475 µM, the IC50 (SERT [2]) is reported as 24.2 µM and the ED50 ([3]; Mus musculus, ip, 0.5 h, read-out: HLA (hypolocomotion) ED50) is reported as 4.52 mg/kg. The “HLA (hypolocomotion) Emax (95% CI)” value [3] was 55.32 (38.20–72.44) % reduction and the “5-HT releasing activity” value (SERT [4]) was “slight to none 5-HT releasing activity”.

With `CCN(CCc1c[nH]c2ccc(OC)cc12)C(C)C` [5-MeO-EIPT] the Ki (h5-HT2AR) was 0.151 ± 0.026 µM, the Ki (SERT [1]; [5]) was 1.78 ± 0.083 µM and the IC50 (SERT [2]; [6]) was 22.2 µM. The “HLA (hypolocomotion) ED50” value [3] was 4.82 mg/kg, the “HLA (hypolocomotion) Emax (95% CI)” value [3] was 68.02 (54.57–81.46) % reduction and the “5-HT release at SERT” value (SERT [4]) was < 10 % total cpm.

`CCN(C)CCc1c[nH]c2ccc(OC)cc12` [5-MeO-MET] showed a Ki (h5-HT2AR) of 0.0941 ± 0.0167 µM, a Ki (SERT [1]; [5]) of 7.71 ± 3.38 µM and an IC50 (SERT [2]; [6]) of 30.1 µM. The “HLA (hypolocomotion) ED50” value [3] was 1.70 mg/kg, the “HLA (hypolocomotion) Emax (95% CI)” value [3] was 66.79 (58.20–75.37) % reduction and the “5-HT releasing activity” value (SERT [4]) was “capable of evoking 5-HT release”.

Work on `COc1ccc2[nH]cc(CCN(C)C(C)C)c2c1` [5-MeO-MIPT] yielded a Ki (h5-HT2AR) of 0.147 ± 0.032 µM, a Ki (SERT [1]; [5]) of 2.87 ± 0.928 µM and an IC50 (SERT [2]; [6]) of 29.8 µM. For the same compound, the “HLA (hypolocomotion) ED50” value [3] was 6.57 mg/kg, the “HLA (hypolocomotion) Emax (95% CI)” value [3] was 82.78 (62.16–103.4) % reduction and the “5-HT release at SERT” value (SERT [4]) was < 10 % total cpm. The “5-HT releasing activity” value (SERT [4]) was “slight to none 5-HT releasing activity”.

Work on `COc1ccc2[nH]cc(CCN3CCCC3)c2c1` [5-MeO-pyr-T] yielded a Ki (h5-HT2AR) of 0.373 ± 0.059 µM, a Ki (SERT [1]; [5]) of 3.01 ± 0.354 µM and an IC50 (SERT [2]; [6]) of 2.77 ± 1.43 µM. The “HLA (hypolocomotion) ED50” value [3] was 1.60 mg/kg, the “HLA (hypolocomotion) Emax (95% CI)” value [3] was 71.25 (60.71–81.79) % reduction and the “5-HT releasing activity” value (SERT [4]) was “capable of evoking 5-HT release”.
